Assay results from PubChem BioAssay AID1963983 (Molecular Pharmacology Branch, DTP, NCI, 2024).

Tested on: 186277-243-T-J2-PDC multi-cell spheroid viability
Assay: Anticancer human tumor 186277-243-T-J2-PDC patient-derived colon adenocarcinoma cell line growth inhibition [PI3K]
Settings: for IC50: curve of first compound; for viability, T/C: stronger effect = lower value
How it was run: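 Tumor cells grown as multi-cell spheroids with HUVEC endothelial cells and MSC fibroblast-like stroma were treated with targeted agents combined with inavolisib, alpelisib, duvelisib or copanlisib. Doses fell in half-log steps from near clinical Cmax, else from 10 microM. Viability was measured.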

[1] = second compound 0.0316 µM, first compound 0.0316 µM
[2] = second compound 0.0316 µM, first compound 0.1 µM
[3] = second compound 0.0316 µM, first compound 0.316 µM
[4] = second compound 0.0316 µM, first compound 1 µM
[5] = second compound 0.1 µM, first compound 0.0316 µM
[6] = second compound 0.1 µM, first compound 0.1 µM
[7] = second compound 0.1 µM, first compound 0.316 µM
[8] = second compound 0.1 µM, first compound 1 µM
[9] = second compound 0.316 µM, first compound 0.0316 µM
[10] = second compound 0.316 µM, first compound 0.1 µM
[11] = second compound 0.316 µM, first compound 0.316 µM
[12] = second compound 0.316 µM, first compound 1 µM
[13] = second compound 1 µM, first compound 0.0316 µM
[14] = second compound 1 µM, first compound 0.1 µM
[15] = second compound 1 µM, first compound 0.316 µM
[16] = second compound 1 µM, first compound 1 µM
[17] = second compound 3.16 µM, first compound 0.0316 µM
[18] = second compound 3.16 µM, first compound 0.1 µM
[19] = second compound 3.16 µM, first compound 0.316 µM
[20] = second compound 3.16 µM, first compound 1 µM
[21] = second compound 10 µM, first compound 0.0316 µM
[22] = second compound 10 µM, first compound 0.1 µM
[23] = second compound 10 µM, first compound 0.316 µM
[24] = second compound 10 µM, first compound 1 µM
[25] = second compound 0.0316 µM, first compound 0.00316 µM
[26] = second compound 0.0316 µM, first compound 0.01 µM
[27] = second compound 0.1 µM, first compound 0.00316 µM
[28] = second compound 0.1 µM, first compound 0.01 µM
[29] = second compound 0.316 µM, first compound 0.00316 µM
[30] = second compound 0.316 µM, first compound 0.01 µM
[31] = second compound 1 µM, first compound 0.00316 µM
[32] = second compound 1 µM, first compound 0.01 µM
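Note: spheroids exposed to compounds for seven days before viability reading.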
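Throughout, for viability, T/C: 100% = DMSO vehicle control viability.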

Work on `CC(Cn1ccc(-c2ccc(C#N)c(Cl)c2)n1)NC(=O)c1cc(C(C)O)[nH]n1` (stereo unspecified) + Cc1nc(NC(=O)N2CCCC2C(N)=O)sc1-c1ccnc(C(C)(C)C(F)(F)F)c1 yielded an IC50 (second compound 0.0316 µM) of over 10000 nM, an IC50 (second compound 0.1 µM) of over 10000 nM and an IC50 (second compound 0.316 µM) of over 10000 nM. It also gave an IC50 (second compound 1 µM) of over 10000 nM, an IC50 (second compound 3.16 µM) of over 10000 nM and an IC50 (second compound 10 µM) of under 31.6 nM. It also gave a viability, T/C [1] of 99.2%, a viability, T/C [2] of 96.7% and a viability, T/C [3] of 98.5%. It also gave a viability, T/C [4] of 93%, a viability, T/C (second compound 0.0316 µM, first compound 3.16 µM) of 116% and a viability, T/C (second compound 0.0316 µM, first compound 10 µM) of 107%. For the same compound, the viability, T/C [5] was 112%, the viability, T/C [6] was 103% and the viability, T/C [7] was 88.6%. The viability, T/C [8] was 109%, the viability, T/C (second compound 0.1 µM, first compound 3.16 µM) was 107% and the viability, T/C (second compound 0.1 µM, first compound 10 µM) was 122%. For the same compound, the viability, T/C [9] was 99.7%, the viability, T/C [10] was 97.6% and the viability, T/C [11] was 103%. For the same compound, the viability, T/C [12] was 116%, the viability, T/C (second compound 0.316 µM, first compound 3.16 µM) was 105% and the viability, T/C (second compound 0.316 µM, first compound 10 µM) was 97.5%. The viability, T/C [13] was 103%, the viability, T/C [14] was 92.8% and the viability, T/C [15] was 86%. The viability, T/C [16] was 97.9%, the viability, T/C (second compound 1 µM, first compound 3.16 µM) was 86.8% and the viability, T/C (second compound 1 µM, first compound 10 µM) was 88.3%. It also gave a viability, T/C [17] of 56.5%, a viability, T/C [18] of 60.2% and a viability, T/C [19] of 54.2%. The viability, T/C [20] was 58.9%, the viability, T/C (second compound 3.16 µM, first compound 3.16 µM) was 50.7% and the viability, T/C (second compound 3.16 µM, first compound 10 µM) was 54.8%. It also gave a viability, T/C [21] of 21.6%, a viability, T/C [22] of 14.2% and a viability, T/C [23] of 18.5%. The viability, T/C [24] was 17.1%, the viability, T/C (second compound 10 µM, first compound 3.16 µM) was 15.8% and the viability, T/C (second compound 10 µM, first compound 10 µM) was 12.7%.

Compound `CCN1CCN(Cc2ccc(Nc3ncc(F)c(-c4cc(F)c5nc(C)n(C(C)C)c5c4)n3)nc2)CC1` + Cc1nc(NC(=O)N2CCCC2C(N)=O)sc1-c1ccnc(C(C)(C)C(F)(F)F)c1 has an IC50 (second compound 0.0316 µM) of over 1000 nM, an IC50 (second compound 0.1 µM) of over 1000 nM and an IC50 (second compound 0.316 µM) of over 1000 nM. It also gave an IC50 (second compound 1 µM) of over 1000 nM, an IC50 (second compound 3.16 µM) of under 3.16 nM and an IC50 (second compound 10 µM) of under 3.16 nM. It also gave a viability, T/C [25] of 96.7%, a viability, T/C [26] of 116% and a viability, T/C [1] of 107%. For the same compound, the viability, T/C [2] was 139%, the viability, T/C [3] was 147% and the viability, T/C [4] was 137%. It also gave a viability, T/C [27] of 97.4%, a viability, T/C [28] of 93% and a viability, T/C [5] of 105%. The viability, T/C [6] was 127%, the viability, T/C [7] was 145% and the viability, T/C [8] was 124%. It also gave a viability, T/C [29] of 97.9%, a viability, T/C [30] of 114% and a viability, T/C [9] of 104%. The viability, T/C [10] was 103%, the viability, T/C [11] was 116% and the viability, T/C [12] was 92.5%. For the same compound, the viability, T/C [31] was 101%, the viability, T/C [32] was 90.2% and the viability, T/C [13] was 77.9%. It also gave a viability, T/C [14] of 78.1%, a viability, T/C [15] of 74% and a viability, T/C [16] of 62.8%. For the same compound, the viability, T/C (second compound 3.16 µM, first compound 0.00316 µM) was 49.8%, the viability, T/C (second compound 3.16 µM, first compound 0.01 µM) was 47.5% and the viability, T/C [17] was 42.1%. For the same compound, the viability, T/C [18] was 37%, the viability, T/C [19] was 41.4% and the viability, T/C [20] was 28.6%. For the same compound, the viability, T/C (second compound 10 µM, first compound 0.00316 µM) was 15.8%, the viability, T/C (second compound 10 µM, first compound 0.01 µM) was 14.2% and the viability, T/C [21] was 10.7%. For the same compound, the viability, T/C [22] was 9%, the viability, T/C [23] was 12.5% and the viability, T/C [24] was 12%.

`CCN1CCN(Cc2ccc(Nc3ncc(F)c(-c4cc(F)c5nc(C)n(C(C)C)c5c4)n3)nc2)CC1` + COc1c(OCCCN2CCOCC2)ccc2c3n(c(=NC(=O)c4cnc(N)nc4)nc12)CCN3 was tested, and the IC50 (second compound 0.00316 µM) was over 1000 nM, the IC50 (second compound 0.01 µM) was over 1000 nM and the IC50 (second compound 0.0316 µM) was 234 nM. The IC50 (second compound 0.1 µM) was under 3.16 nM, the IC50 (second compound 0.316 µM) was under 3.16 nM and the IC50 (second compound 1 µM) was under 3.16 nM. For the same compound, the viability, T/C (second compound 0.00316 µM, first compound 0.00316 µM) was 95.3%, the viability, T/C (second compound 0.00316 µM, first compound 0.01 µM) was 111% and the viability, T/C (second compound 0.00316 µM, first compound 0.0316 µM) was 94.3%. For the same compound, the viability, T/C (second compound 0.00316 µM, first compound 0.1 µM) was 134%, the viability, T/C (second compound 0.00316 µM, first compound 0.316 µM) was 151% and the viability, T/C (second compound 0.00316 µM, first compound 1 µM) was 108%. The viability, T/C (second compound 0.01 µM, first compound 0.00316 µM) was 101%, the viability, T/C (second compound 0.01 µM, first compound 0.01 µM) was 107% and the viability, T/C (second compound 0.01 µM, first compound 0.0316 µM) was 113%. It also gave a viability, T/C (second compound 0.01 µM, first compound 0.1 µM) of 112%, a viability, T/C (second compound 0.01 µM, first compound 0.316 µM) of 123% and a viability, T/C (second compound 0.01 µM, first compound 1 µM) of 69.4%. For the same compound, the viability, T/C [25] was 68.4%, the viability, T/C [26] was 59.7% and the viability, T/C [1] was 57.8%. It also gave a viability, T/C [2] of 52.4%, a viability, T/C [3] of 54.8% and a viability, T/C [4] of 33.2%. It also gave a viability, T/C [27] of 19.9%, a viability, T/C [28] of 17.7% and a viability, T/C [5] of 16%. It also gave a viability, T/C [6] of 13%, a viability, T/C [7] of 14.5% and a viability, T/C [8] of 12.8%. For the same compound, the viability, T/C [29] was 6.67%, the viability, T/C [30] was 7.13% and the viability, T/C [9] was 4.73%. The viability, T/C [10] was 3.28%, the viability, T/C [11] was 6.05% and the viability, T/C [12] was 7.03%. It also gave a viability, T/C [31] of 2.68%, a viability, T/C [32] of 3% and a viability, T/C [13] of 2.82%. For the same compound, the viability, T/C [14] was 2.7%, the viability, T/C [15] was 7% and the viability, T/C [16] was 4.26%.
